# Measurements reported in patent US11161815B2, “Hydrocarbylsulfonyl-substituted pyridines and their use in the treatment of cancer” (Oblique Therapeutics AB, priority 2017, dated 2021).
# Legend:
# [1] = system: MDA-MB-468; experiment: Cancer cell viability assay (MTT), MDA-MB-468; type: cell-based; settings: Homo sapiens, 72 hrs, 10% FBS media
# Description: (§1) Breast cancer and glioblastoma cell lines were plated 4000 cells/well in 96-well plates in the presence of 10% FBS media. The following day cells were treated with various concentrations of the example compounds (0.1% DMSO final) and incubated for 72 hrs. After the incubation An MTT assay was performed to access cell viability. Percent of viability was determined using DMSO vehicle and no cell (blank) controls.
# [2] = system: U-87 MG; experiment: Cancer cell viability assay (MTT), U-87 MG; type: cell-based; settings: Homo sapiens, 72 hrs, 10% FBS media
# Description: as §1
# [3] = system: MDA-MB-231 cells; experiment: Breast cancer cell viability assay (Alamar Blue); type: cell-based; settings: Homo sapiens, 72 hrs, 10% FBS media containing 25 nM selenite
# Description: (§2) MDA-MB-231 cells were plated 2000 cells/well in 96-well black optical plates in the presence of 10% FBS media containing 25 nM selenite. The following day cells were treated with various concentrations of compounds (0.1% DMSO final) and incubated for 72 hrs. After the incubation Alamar Blue reagent was added to each well and incubated for additional 3 hrs. Fluorescence was read ex:530 nm/em:590 nm, and percent of viability was determined using DMSO vehicle and no cell (blank) controls.
# [4] = biological target: recombinant thioredoxin reductase 1 (TrxR1) (Homo sapiens (Human), UniProt Q16881); experiment: Inhibition of recombinant TrxR1 (DTNB assay); type: biochemical; settings: 30 nM TrxR1, 250 μM NADPH, 15 minutes incubation, read-out: TrxR Assay IC50
# recombinant thioredoxin reductase 1 (TrxR1), sequence (Q16881 151-649): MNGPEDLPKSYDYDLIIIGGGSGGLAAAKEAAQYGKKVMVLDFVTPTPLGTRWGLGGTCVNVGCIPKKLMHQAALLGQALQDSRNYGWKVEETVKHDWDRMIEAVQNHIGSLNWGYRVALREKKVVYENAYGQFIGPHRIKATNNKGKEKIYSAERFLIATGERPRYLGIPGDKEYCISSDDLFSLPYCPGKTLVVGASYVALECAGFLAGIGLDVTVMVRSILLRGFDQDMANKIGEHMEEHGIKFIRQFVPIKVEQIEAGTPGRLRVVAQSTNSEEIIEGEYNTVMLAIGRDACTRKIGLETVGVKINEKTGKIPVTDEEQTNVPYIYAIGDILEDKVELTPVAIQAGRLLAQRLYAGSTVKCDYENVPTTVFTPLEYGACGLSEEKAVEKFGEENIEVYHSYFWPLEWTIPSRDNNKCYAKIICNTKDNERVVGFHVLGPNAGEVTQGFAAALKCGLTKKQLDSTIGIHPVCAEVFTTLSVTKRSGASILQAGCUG
# Description: (§3) Small molecule inhibition of recombinant thioredoxin reductase 1 (TrxR1) and gluthathione reductase (GR) was examined in 96-well plate format. 30 nM TrxR1 was incubated in the presence of 250 μM NADPH, 0.1 mg/ml BSA, and various concentrations of compound (1% DMSO final) in 50 mM Tris (pH 7.5) and 2 mM EDTA buffer for 15 minutes. Following the incubation period, 2 mM DTNB was added to each well and the change in O.D. at 412 nm was followed. Percent activity was determined using DMSO vehicle and no TrxR1 (blank) controls. 2 nM GR was incubated in the presence of 250 μM NADPH, 0.1 mg/ml BSA, and various concentrations of compounds (1% DMSO final) in 50 mM Tris (pH 7.5) and 2 mM EDTA buffer for 15 minutes. Following the incubation period, 1 mM GSSG was added to each well and the change in O.D. at 340 nm was followed. Percent activity was determined using DMSO vehicle and no GR (blank) controls.
# [5] = biological target: gluthathione reductase (GR) (Homo sapiens (Human), UniProt P00390); experiment: Inhibition of recombinant GR (GSSG assay); type: biochemical; settings: 2 nM GR, 250 μM NADPH, 15 minutes incubation
# gluthathione reductase (GR), sequence (P00390 44-522): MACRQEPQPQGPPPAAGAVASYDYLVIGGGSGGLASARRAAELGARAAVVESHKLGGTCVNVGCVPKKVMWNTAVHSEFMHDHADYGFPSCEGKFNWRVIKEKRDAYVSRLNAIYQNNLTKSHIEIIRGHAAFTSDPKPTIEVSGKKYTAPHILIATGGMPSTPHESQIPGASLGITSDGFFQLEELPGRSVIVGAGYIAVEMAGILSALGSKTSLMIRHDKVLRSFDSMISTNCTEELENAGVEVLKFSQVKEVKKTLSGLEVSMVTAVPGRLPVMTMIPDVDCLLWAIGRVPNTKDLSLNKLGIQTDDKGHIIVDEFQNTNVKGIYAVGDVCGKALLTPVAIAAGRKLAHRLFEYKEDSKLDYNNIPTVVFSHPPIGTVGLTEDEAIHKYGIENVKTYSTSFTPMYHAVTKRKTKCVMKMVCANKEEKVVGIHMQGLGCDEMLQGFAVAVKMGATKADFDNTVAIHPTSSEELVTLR
# Description: as §3
# [6] = system: MDA-MB-231; experiment: Cancer cell viability assay (MTT), MDA-MB-231; type: cell-based; settings: Homo sapiens, 72 hrs, 10% FBS media
# Description: as §1
# [7] = system: FaDu cells; experiment: Head and neck cancer cell viability assay (Cell-Quanti Blue); type: cell-based; settings: Homo sapiens, 72 hrs, 10% FBS media containing 25 nM selenite
# Description: as §2, with “FaDu” for “MDA-MB-231”, “the compound of Example 1” for “compounds”, “Cell-Quanti” for “Alamar”
Structure (SMILES),IC50 [1] [µM],IC50 [2] [µM],IC50 [3] [µM],IC50 [4] [µM],IC50 [5] [µM],IC50 [6] [µM],IC50 [7] [µM]
"COc1ccc([N+](=O)[O-])c(S(=O)(=O)Cc2ccccc2)n1 [Example 1, 2-Benzylsulfonyl-6-methoxy-3-nitropyridine]",2.89,6.11,3.81,0.0182,> 100,1.8,0.28
"CCCCCCS(=O)(=O)c1nc(Cl)ccc1[N+](=O)[O-] [Example 6, 6-Chloro-2-(hexylsulfonyl)-3-nitropyridine]",–,–,–,0.056,8.76,–,0.71
"CN(C)c1ccc([N+](=O)[O-])c(S(=O)(=O)C2CCCC2)n1 [Example 8, 2-Cyclopentylsulfonyl-6-dimethylamino-3-nitropyridine]",–,–,–,0.188,> 100,–,6.97
"CCCCCCS(=O)(=O)c1nc(N(C)C)ccc1[N+](=O)[O-] [Example 9, 6-Dimethylamino-2-hexylsulfonyl-3-nitropyridine]",–,–,–,0.333,> 100,–,12.7
